{"source": "paper PMC5847048", "about": "(Psychopharmacology, 2017)", "key": {"[1]": {"tested_on": "aged mice (22–24 months old)", "assay": "Radial maze working memory task", "assay_type": "in vivo, mouse", "procedure": "In the radial arm maze task, treatments were administered subcutaneously (s.c.) once a day 60 min prior to testing from the 2 days of habituation to the 12 days of memory testing.\nThe radial maze (Imetronic system, Pessac, France) was fully automated and enabled by video-tracking automatic testing and recording. Briefly, each mouse was separately assigned to six adjacent arms which were grouped into three pairs (A, B, C). These three pairs were presented repeatedly among the successive trials of each testing session. The location of the food reward varied in each pair according to an alternation rule among successive trials. Namely, among the two arms opened in a specific trial, the food was inserted in the arm which was not visited in the previous trial within the same pair. The mouse must therefore remember which of the two arms was visited in a specific trial until next presentation of the same pair, and so on in order to alternate its choice among successive presentations of any pair. At the beginning of each daily session, the mouse was placed in the central platform of the radial maze with all arms closed. One pair of arms only was opened at the beginning of each trial, and the mouse was required to visit one arm. The door of the non-chosen arm was closed as soon as the mouse reached the end of the chosen arm. The mouse was allowed to run back to the central platform of his own accord, and then, the door of the chosen arm was closed. The mouse remained in the central platform until the following trial (intertrial interval 10 s). Since three pairs were concurrently used, three specific arm visits must be kept in memory by the mouse until their utilization by using short-term working memory. After 2 days of free exploration in the maze (habituation), mice were submitted to 12 consecutive testing sessions: one session of 23 trials (3 “acquisition-only trials,” one by pair, and 20 “acquisition and test trials”) per day, i.e., a total of 276 trials (240 test trials).\nEach session consisted of alternate presentations of pairs A, B, and C. The first three trials with each pair were acquisition trials (both arms rewarded). Each of the following trials was at the same time an acquisition trial (for the following trial with the same pair) and a test trial (for the arm visit made during the preceding trial with the same pair); the rewarded arm was the one that has not been visited on the preceding trial with the same pair. Memory demand varied across successive trials according to the retention interval RI (i.e., the number of intervening trials with other pairs between two successive presentations of the same pair). The retention interval for one specific arm visit (e.g., within pair A) depends on the number of concurring trials (i.e., with pairs B and C) occurring till next trial with the same pair (A). Indeed, such a variable amount of interposed trials proportionally increases the delay between acquisition and test and may also generate retroactive interference. There are five levels of retention interval: from 0, corresponding to “no interposed pair,” to 4, corresponding to a sequence of four interposed trials between n-1 and n trials.\nDuring habituation, the time needed for visiting all six arms per session day was measured. During memory testing, memory performance was evaluated according to the percentage of correct alternation responses between successive trials with the same pair in three different manners."}, "[2]": {"tested_on": "middle-aged mice (14–15 months old)", "assay": "Contextual serial discrimination (CSD) task", "assay_type": "in vivo, mouse", "conditions": "for Strength of contextual memory (SCM) score, first discrimination D1: Experiment 1 study A, middle-aged mice, vehicle − 21.66%; for SCM score (LSMeans ± SE LSMeans): Experiment 2, 9 days, D1", "description": "Treatments were administered per os daily for nine consecutive days for studies involving the CSD and SA tasks. The 8th and the 9th oral administrations were given 60 min before acquisition and test phases in the CSD task, or before the training and the test sessions in the SA task.\nThe studies were carried out on mice according to the procedure described in full by Celerier et al. ([2004]) and Tronche et al. ([2010]) (Fig.1). Briefly, the mouse learns two consecutive spatial discriminations (D1 and D2) in a four hole-board apparatus (45 × 45 × 30 cm) enclosed with gray Plexiglas walls. The floor of the hole-board was interchangeable (white and rough versus black and smooth). On the floor, four holes opening on a food cup (3-cm diameter × 2.5-cm depth) were located 6 cm away from the sidewalls. Photocells located into the holes allowed an automatic recording of the number of head-dips in each hole.\nFig. 1 a Contextual serial discrimination: at the acquisition phase, mice performed two consecutive spatial discrimination sessions varying by the color and texture of the floor, i.e., D1, discrimination 1, and D2, discrimination 2. For each discrimination session, only one out of the four holes of the apparatus was baited (hashed circles). […] One hour prior to acquisition and test phases, mice received a per os administration of the compounds or vehicle solution in a chamber placed in a room (room C) different from the one in which the behavioral experiments were conducted (room A). Subsequently, mice were submitted to the test phase in which they were repositioned on the floor of the first discrimination without any food pellet in the apparatus. b Two types of responses were calculated: (i) correct responses corresponding to head-dips into the hole baited at the acquisition of the first discrimination (D1), on the same floor context; (ii) interference responses corresponding to head-dips into the hole baited at the other (second) discrimination (D2). Both parameters allow calculation of the SCM score\nMice were partially food-deprived for 1 week prior to experimentation and were maintained on a 12 ± 2% loss of their body weight throughout behavioral testing to increase motivation for food reward. During the food deprivation phase, mice were handled daily to familiarize them with the experimenter.\nDuring the acquisition session, mice were first placed at the center of the board in a plastic tube for 15 s and then learned two successive spatial discriminations (D1 and D2) for 6 min each and were each separated by a 2-min interval. Between two sessions, each mouse was placed in its home cage in an animal housing room. For D1, ten 20-mg pellets were available only in one of the four holes in the board. For D2, ten 20-mg pellets were located in the opposite symmetrical hole. The environmental spatial cues remained at the same place for D1 and D2. Within each group, the floors used for the first and second discrimination (D1 and D2) were counterbalanced at the acquisition phase from one mouse to the other. A minimal amount of eight pellets should be eaten per mouse at either D1 or D2 during the acquisition phase.\nDuring memory testing, D1 and D2 discriminations were performed in independent groups of mice, being replaced either on the floor of D1 or of D2. The food-deprived mice were replaced either on the floor of D1 or on the floor of D2. In each case, mice were allowed to explore the apparatus freely and performance was assessed by measuring the exploration for each hole for 6 min without any pellets in the apparatus. During the procedure, photocells allowed measurement of the number of head dips in each hole. Different parameters were further calculated: % of correct responses (head-dips into the hole previously baited on the same floor context), % of interfering responses (head-dips into the hole previously baited on the other floor context), and % of errors (head-dips into the two holes never previously baited)."}}}
{"smiles": "O=C1c2cc3nnn(CCc4cccc(F)c4)c(=O)c3cc2OCN1C1CC1", "note": "[S 47445]", "values": [{"measurement": "Overall memory performance (mean percentage of correct responses over 12 days)", "setting": "[1]; S 47445 0.3 mg/kg s.c. once a day, aged mice, versus aged vehicle (p ≤ 0.05)", "value": "better memory performance as compared to aged vehicle-treated mice"}, {"measurement": "Performance as a function of retention interval (RI 0–4) versus chance level", "setting": "[1]; S 47445 0.3 mg/kg s.c., aged mice (at least p ≤ 0.01)", "value": "remained significantly above chance level regardless the RI level"}, {"measurement": "Performance as a function of proactive interference", "setting": "[1]; S 47445 0.3 mg/kg s.c., aged mice, data not shown", "value": "ameliorated performance whatever the level of proactive interference"}, {"measurement": "Performance as a function of retention interval (RI 0–4) versus chance level", "setting": "[1]; all other groups (S 47445 0.1 and 1 mg/kg s.c.), aged mice", "value": "dropped to chance level above R1 = 1"}, {"measurement": "Total number of explorations and % exploration of the baited hole, acquisition phase", "setting": "[2]; Experiment 1 (study A and B), compounds alone, p> 0.10 in all analyses", "value": "No significant between-groups difference"}, {"measurement": "Memory performance in the second discrimination (D2)", "setting": "[2]; Experiment 1, S 47445 at all doses, donepezil at the active doses, versus middle-aged vehicle, data not shown", "value": "did not alter memory performance"}, {"measurement": "Total number of head-dips, test phase", "setting": "[2]; Experiment 1, versus vehicles (p > 0.10 in all comparisons), data not shown", "value": "no significant effect"}, {"measurement": "Strength of contextual memory (SCM) score, first discrimination D1", "setting": "[2]; S 47445 0.1 mg/kg p.o. daily 9 days", "value": 6.56, "unit": "%"}, {"measurement": "Strength of contextual memory (SCM) score, first discrimination D1", "setting": "[2]; S 47445 0.3 mg/kg p.o. daily 9 days", "value": 10.57, "unit": "%"}, {"measurement": "SCM score (LSMeans ± SE LSMeans)", "setting": "[2]; S 47445 0.1 mg/kg p.o. alone", "value": "5.1515 ± 7.7919", "unit": "%"}, {"measurement": "SCM score (LSMeans ± SE LSMeans)", "setting": "[2]; S 47445 0.3 mg/kg p.o. alone", "value": "11.7033 ± 7.7919", "unit": "%"}, {"measurement": "Post hoc analysis of S 47445 effect on SCM score for all donepezil levels (Dunnett, versus vehicle group)", "setting": "[2]; S 47445 0.03 mg/kg, all levels of donepezil pooled", "value": "+ (+p ≤ 0.050)"}, {"measurement": "SCM score of the second discrimination (D2), dose effect at pooled levels of the other drug", "setting": "[2]; Supplemental data 2, S 47445 0.03–0.3 mg/kg p.o. (p=0.951), Donepezil 0.03 and 0.1 mg/kg (p=0.074)", "value": "no significant effect"}]}
